For this assay, the target named is T1, GST-GK derived from human liver GK (Homo sapiens, UniProt P35557).
T1 construct: made in house; host or cells: Escherichia coli DH5α
T1 sequence (P35557 1-466 isoform P35557-2): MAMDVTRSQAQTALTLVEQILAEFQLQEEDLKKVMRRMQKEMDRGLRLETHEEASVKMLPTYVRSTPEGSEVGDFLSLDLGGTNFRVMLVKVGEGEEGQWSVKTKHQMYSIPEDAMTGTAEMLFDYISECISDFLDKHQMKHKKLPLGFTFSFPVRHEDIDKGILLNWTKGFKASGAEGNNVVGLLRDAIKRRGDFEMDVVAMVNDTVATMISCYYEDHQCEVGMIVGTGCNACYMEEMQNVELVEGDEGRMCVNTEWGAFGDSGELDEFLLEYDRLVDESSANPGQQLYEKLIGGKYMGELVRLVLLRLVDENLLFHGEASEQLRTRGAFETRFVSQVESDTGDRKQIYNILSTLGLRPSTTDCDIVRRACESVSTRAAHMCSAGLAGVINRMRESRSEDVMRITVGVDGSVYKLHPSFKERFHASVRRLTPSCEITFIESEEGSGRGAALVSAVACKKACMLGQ
As to the kind of experiment: In vitro GK activity measurement test (G6PDH-coupled, OD340). The format is biochemical. The note with it: test compound 1 μmol/L; glucose 2.5 mmol/L; 25° C.; OD340 slope with compound / without compound; read-out: GK activation rate (%). An excerpt:
cDNA (GenBank Accession No. NM_033507, human glucokinase, variant 2) encoding human liver-type GK polypeptide was cloned by performing a polymerase chain reaction (hereinafter referred to as “PCR”) using a human liver cDNA library (Human liver QUICK-Clone cDNA, TAKARA BIO INC.), and the thus cloned cDNA was then introduced into an expression vector (pGEX-3X, GE Healthcare Japan) for glutathione S transferase (hereinafter referred to as GST) fusion protein expression. The resulting vector was introduced into Escherichia coli (Competent high DH5α, Toyobo Co., Ltd.), and the transformed Escherichia coli was then cultured at 37° C. Thereafter, Isopropyl β-D-1-thiogalactopyranoside (final concentration: 1 mmol/L, Sigma Aldrich Japan) was added to the culture, and the obtained mixture was then cultured at 30° C. for 3 hours. Thereafter, a cell mass was recovered. The recovered cell mass was subjected to freezing-and-thawing, and the resulting cell mass was then suspended in phosphate buffer with final concentration of 1% Triton X-100, followed by disintegration with an ultrasonic disruptor. The homogenate was centrifuged at 33,200 rpm at 4° C. for 1 hour. Thereafter, the supernatant was recovered, and a GST-GK fusion protein was then purified using a glutathione column (GSTrap FF, GE Healthcare Japan). The obtained GST-GK fusion protein was divided into some portions each having a small volume, and the thus divided proteins were then preserved at −80° C.
A GK assay method was carried out at 25° C. at a final incubation volume of 100 μL in a flat-bottom 96-well assay plate. An assay buffer comprised 25 mmol/L Hepes buffer (pH 7.1), 25 mmol/L KCl, 2.5 mmol/L or 10 mmol/L D-glucose, 5 mmol/L ATP, 1 mmol/L nicotinamide adenine dinucleotide phosphate (abbreviated as NADP), 2 mmol/L MgCl2, 1 mmol/L dithiothreitol (DTT), 2 units/mL glucose-6 phosphate dehydrogenase (G6PDH), and 1 μg/mL GST-GK derived from human liver GK. ATP, G6PDH, and NADP were purchased from Roche Diagnostics. […] The thus mixed solution was preincubated in an incubator in which the temperature was controlled at 25° C. for 15 minutes. Subsequently, the reaction was initiated by adding 10 μL of the GST-GK solution to the reaction mixture, resulting in a final concentration of 0.1 μg/mL. After initiation of the reaction, an increase in the optical concentration at 340 nm (OD340) was monitored with a microplate spectrophotometer (Varsamax, Molecular Devices Japan K.K.) every 10 seconds over an incubation period of 10 minutes. An inclination of the OD340 increase was defined as raw data. The GK activating rate was indicated as a numerical value obtained from the expression: (Inclination of OD340 increase by addition of the test compound)/(inclination of OD340 increase without addition of the test compound). The results of the GK activating rate obtained at a test compound concentration of 1 μmol/L under the condition of a glucose concentration of 2.5 mmol/L are shown in the following table.
As for `COc1ccc2nc(NC(=O)N3CC4(CCN(C(C)=O)C4)c4cc(S(=O)(=O)NCc5ccco5)ccc43)sc2n1` (stereo not drawn) [Example 271, 1′-Acetyl-5-(N-(furan-2-ylmethyl)sulfamoyl)-N-(5-methoxythiazolo[5,4-b]pyridin-2-yl)spiro[indoline-3,3′-pyrrolidine]-1-carboxamide], the activity at 1 µM was found to be 578%.
Take `COc1ccc2nc(NC(=O)N3CC4(CCN(C(C)=O)C4)c4cc(S(=O)(=O)NCc5ccccc5F)ccc43)sc2n1` (stereo not drawn) [Example 269, 1′-Acetyl-5-(N-(2-fluorobenzyl)sulfamoyl)-N-(5-methoxythiazolo[5,4-b]pyridin-2-yl)spiro[indoline-3,3′-pyrrolidine]-1-carboxamide]: the activity at 1 µM was 640%.
The value for `COCCCSc1cnc(NC(=O)N2CC3(CCN(C(=O)OC)C3)c3cc(Cl)ccc32)s1` (stereo not drawn) [Example 162, Methyl 5-chloro-1-((5-((3-methoxypropyl)thio)thiazol-2-yl)carbamoyl)spiro[indoline-3,3′-pyrrolidine]-1′-carboxylate] was 484%.
As for `O=C(CCNC(=O)N1CCC2(C1)CN(C(=O)Nc1ncc(Cl)s1)c1ccc(Cl)cc12)N1CCC1` (stereo not drawn) [Example 466, N1′-(3-(Azetidin-1-yl)-3-oxopropyl)-5-chloro-N1-(5-chlorothiazol-2-yl)spiro[indoline-3,3′-pyrrolidine]-1,1′-dicarboxamide], the activity at 1 µM came to 446%.
On to `COC(=O)N1CCC2(C1)CN(C(=O)Nc1ncc(SCCCNC(C)=O)s1)c1ccc(Cl)cc12` (stereo not drawn) [Example 177, methyl 1-((5-((3-acetamidopropyl)thio)thiazol-2-yl)carbamoyl)-5-chlorospiro[indoline-3,3′-pyrrolidine]-1′-carboxylate], for which the activity at 1 µM was found to be 530%.
On to `CC(=O)OCC(=O)N1CC[C@@]2(C1)CN(C(=O)Nc1ncc(Cl)s1)c1ccc(Cl)cc12` [Example 52, (R)-2-(5-chloro-1-((5-chlorothiazol-2-yl)carbamoyl)spiro[indoline-3,3′-pyrrolidin]-1′-yl)-2-oxoethyl acetate], for which the activity at 1 µM amounted to 531%.
Consider `COC(=O)N1CC[C@@]2(C1)CN(C(=O)Nc1ncc(Cl)s1)c1ccc(Cl)cc12` [Example 351, (S)-methyl 5-chloro-1-((5-chlorothiazol-2-yl)carbamoyl)spiro[indoline-3,3′-pyrrolidine]-1′-carboxylate], for which the activity at 1 µM amounted to 886%.
For `COc1cnc(NC(=O)N2CC3(CCN(C(C)=O)C3)c3cc(C(F)(F)F)ccc32)s1` (stereo not drawn) [Example 437, 1′-Acetyl-N-(5-methoxythiazol-2-yl)-5-(trifluoromethyl)spiro[indoline-3,3′-pyrrolidine]-1-carboxamide] the value was 506%.
Take `CC(=O)N1CC(CNC(=O)N2CCC3(C2)CN(C(=O)Nc2ncc(Cl)s2)c2ccc(C(F)(F)F)cc23)C1` (stereo not drawn) [Example 445, N1′-((1-acetylazetidin-3-yl)methyl)-N1-(5-chlorothiazol-2-yl)-5-(trifluoromethyl)spiro[indoline-3,3′-pyrrolidine]-1,1′-dicarboxamide]: the activity at 1 µM stood at 500%.
Consider `COC(=O)N1CCC2(C1)CN(C(=O)Nc1ncc(SCCCC(=O)N3CC(O)C3)s1)c1ccc(Cl)cc12` (stereo not drawn) [Example 170, methyl 5-chloro-1-((5-((4-(3-hydroxyazetidin-1-yl)-4-oxobutyl)thio)thiazol-2-yl)carbamoyl)spiro[indoline-3,3′-pyrrolidine]-1′-carboxylate], for which the activity at 1 µM amounted to 506%.
As to `CCOC(=O)CCNC(=O)N1CCC2(C1)CN(C(=O)Nc1ncc(Cl)s1)c1ccc(Cl)cc12` (stereo not drawn) [Example 462, Ethyl 3-(5-chloro-1-((5-chlorothiazol-2-yl)carbamoyl)spiro[indoline-3,3′-pyrrolidin]-1′-ylcarboxamido)propionate], the activity at 1 µM amounted to 454%.
The value for `CNC(=O)N1CCC2(C1)CN(C(=O)Nc1ncc(Cl)s1)c1ccc(C(F)(F)F)cc12` (stereo not drawn) [Example 432, N1-(5-Chlorothiazol-2-yl)-N1′-methyl-5-(trifluoromethyl)spiro[indoline-3,3′-pyrrolidine]-1,1′-dicarboxamide] was 613%; that for `CNC(=O)CCCNC(=O)N1CCC2(C1)CN(C(=O)Nc1ncc(Cl)s1)c1ccc(Cl)cc12` (stereo not drawn) [Example 472, 5-Chloro-N1-(5-chlorothiazol-2-yl)-N1′-(4-(methylamino)-4-oxobutyl)spiro[indoline-3,3′-pyrrolidine]-1,1′-dicarboxamide] was 456%; that for `CCOC(=O)CCCc1ccc2c(c1)C1(CCN(C(=O)NC)C1)CN2C(=O)Nc1ncc(Cl)s1` (stereo not drawn) [Example 419, ethyl 4-(1-((5-chlorothiazol-2-yl)carbamoyl)-1′-(methylcarbamoyl)spiro[indoline-3,3′-pyrrolidin]-5-yl)butanoate] was 535%.
The value for `CS(=O)(=O)CCNC(=O)N1CCC2(C1)CN(C(=O)Nc1ncc(Cl)s1)c1ccc(Cl)cc12` (stereo not drawn) [Example 467, 5-chloro-N1-(5-chlorothiazol-2-yl)-N1′-(2-(methylsulfonyl)ethyl)spiro[indoline-3,3′-pyrrolidine]-1,1′-dicarboxamide] was 480%; that for `CNC(=O)C(=O)N1CCC2(C1)CN(C(=O)Nc1ncc(Cl)s1)c1ccc(Cl)cc12` (stereo not drawn) [Example 46, 5-chloro-N-(5-chlorothiazol-2-yl)-1′-(2-(methylamino)-2-oxoacetyl)spiro[indoline-3,3′-pyrrolidine]-1-carboxamide] was 499%; that for `O=C(NCCCCO)N1CCC2(C1)CN(C(=O)Nc1ncc(Cl)s1)c1ccc(Cl)cc12` (stereo not drawn) [Example 470, 5-chloro-N1-(5-chlorothiazol-2-yl)-N1′-(4-hydroxybutyl)spiro[indoline-3,3′-pyrrolidine]-1,1′-dicarboxamide] was 459%.
For `COCCCN(Cc1ccccc1)S(=O)(=O)c1ccc2c(c1)C1(CCN(C(C)=O)C1)CN2C(=O)Nc1nc2ccc(OC)nc2s1` (stereo not drawn) [Example 289, 1′-Acetyl-5-(N-benzyl-N-(3-methoxypropyl)sulfamoyl)-N-(5-methoxythiazolo[5,4-b]pyridin-2-yl)spiro[indoline-3,3′-pyrrolidine]-1-carboxamide] the value was 752%.
On to `CCOC(=O)CSc1cnc(NC(=O)N2C[C@]3(CCN(C(=O)OC)C3)c3cc(Br)ccc32)s1` [Example 334, (S)-methyl 5-bromo-1-((5-((2-ethoxy-2-oxoethyl)thio)thiazol-2-yl)carbamoyl)spiro[indoline-3,3′-pyrrolidine]-1′-carboxylate], for which the activity at 1 µM turned out to be 705%.
For `COCCN(Cc1ccccc1)S(=O)(=O)c1ccc2c(c1)[C@@]1(CCN(C(=O)OC)C1)CN2C(=O)Nc1nc2ccc(OC)nc2s1` [Example 344, (S)-methyl 5-(N-benzyl-N-(2-methoxyethyl)sulfamoyl)-1-((5-methoxythiazolo[5,4-b]pyridin-2-yl)carbamoyl)spiro[indoline-3,3′-pyrrolidine]-1′-carboxylate] the value was 647%; for `COC(=O)N1CC[C@@]2(C1)CN(C(=O)Nc1nc3ccc(OC)nc3s1)c1ccc(S(=O)(=O)N(CCO)Cc3ccccc3)cc12` [Example 345, (S)-methyl 5-(N-benzyl-N-(2-hydroxyethyl)sulfamoyl)-1-((5-methoxythiazolo[5,4-b]pyridin-2-yl)carbamoyl)spiro[indoline-3,3′-pyrrolidine]-1′-carboxylate], 785%.

(Values after patent publication US8921576B2, “Spiroindoline compound, and medicinal agent comprising same” (Kowa Company, Ltd., priority 2011, dated 2014).)
